Assay results as given in paper PMC5590477, “Biotinylated N-Acetyllactosamine- and N,N-Diacetyllactosamine-Based Oligosaccharides as Novel Ligands for Human Galectin-3” (Bioengineering, 2017).
Values joined by “and” are separate entries in the source; they are usually repeats but may differ in a detail not shown here. Equal values may be shown once. One block for each compound: values may come before it.

Legend:
human His6Gal-3 [1] = target: T1, human His6Gal-3 (Homo sapiens, UniProt P17931); assay: ELISA-type binding of Gal-3 to immobilized glycans and neo-glycoproteins; conditions: for Gal-3 binding to immobilized tetrasaccharide (in words): glycan (5 nmol) immobilized on aminoreactive surface; for selectivity for Gal-3 binding compared with Gal-1 (in words): immobilized glycans, 1 µM protein concentration
T1 construct: made in house; host or cells: Escherichia coli Rosetta (DE3) pLysS
T1 sequence (P17931 whole entry): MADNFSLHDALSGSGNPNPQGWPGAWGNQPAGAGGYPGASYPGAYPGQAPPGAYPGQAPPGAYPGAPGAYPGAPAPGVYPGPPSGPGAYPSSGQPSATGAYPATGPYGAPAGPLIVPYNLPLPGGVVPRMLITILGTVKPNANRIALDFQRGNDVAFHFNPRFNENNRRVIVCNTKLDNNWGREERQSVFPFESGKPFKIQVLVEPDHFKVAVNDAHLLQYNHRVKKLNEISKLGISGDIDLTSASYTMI
Protocol: (§1) The synthesized glycans and neo-glycoproteins were analyzed for binding of Gal-3 and Gal-1 in 96-well microtiter plate formats. Glycans 11 and 12, as well as the corresponding LacNAc-LacNAc-linker-NH2 1a and LacdiNAc-LacNAc-linker-NH2 2a (deprotected forms of 1 and 2) were immobilized via the amino group in aminoreactive microtiter plates (Immobilizer Amino, Nunc, Wiesbaden, Germany). The immobilization of 5 nmol glycan in sodium carbonate buffer (100 mM, pH 9.6) was done overnight. For immobilizing neo-glycoproteins, 5 pmol protein were incubated in PBS (pH 7.5) in MaxiSorp microtiter plates (Nunc) overnight. Wells were then washed with PBS-Tween (0.05% (v/v)) and blocked with 2% BSA in PBS followed by incubation for one hour with galectins diluted in EPBS. Incubation with anti-His6-peroxidase (Roche) was done subsequently. Microtiter plates were read out at 495 nm after conversion of OPD substrate (o-phenylenediamine, Dako, Hamburg, Germany). Measured data were analyzed using Sigma Plot (Systat software GmbH, Erkrath, Germany).

human His6Gal-3 [2] = target: T1, human His6Gal-3; assay: Competitive inhibition of Gal-3 binding to immobilized asialofetuin (ASF), ELISA-type; conditions: for IC50: inhibition of Gal-3 binding to immobilized ASF (5 pmol), 1 h in PBS; for Relative Potency: from IC50, relative to free tetrasaccharide 6 (13 series) or 7 (14 series); for Relative Potency per Glycan: inhibitory potency per glycan, relative to 6 (13 series) or 7 (14 series)
Protocol: Neo-glycoproteins 13b, 13d, 13e and 14b, 14d, 14e, as well as glycans 1, 2, 6 and 7 were used in a competitive inhibition assay. Asialofetuin (ASF, 5 pmol in PBS) as the standard glycoprotein was immobilized overnight in microtiter plates (MaxiSorp, Nunc). After blocking as described before, different concentrations of inhibitor and His6Gal-3 were simultaneously incubated for one hour in PBS. Residual bound galectin was detected as described above. Evaluation of the measured data was done using Sigma Plot. All assays were reproduced in at least three independent measurements.

human His6Gal-3 [3] = target: T1, human His6Gal-3; assay: Surface plasmon resonance with immobilized Gal-3; assay type: binding; conditions: SPR, ligand in flow (20 µL/min) over immobilized Gal-3, one concentration, fit with Scrubber2; read-out: Apparent KD
Protocol: SPR spectroscopy was done with Reichert SR7500DC System (XanTec bioanalytics, Düsseldorf, Germany) and carboxymethyldextran hydrogel sensor chips complexed with Ni^2+ ions (200M, XanTec bioanalytics). These surfaces allow reversible immobilization of His6-tagged proteins. Human His6Gal-3 (5 pmol in EPBS) was immobilized on the sample channel with a flowrate of 10 µL/min after 5 mM NiCl2 solution was injected. The reference channel stayed untreated.
The binding experiments were carried out with a flow rate of 20 µL/min by injecting neo-glycoproteins 13a–f and 14a–f (2 pmol in PBS) and recently synthesized neo-glycoproteins 15a–f and 16a–f (2 pmol in PBS), as well as BSA and ASF as the control. The dissociation time was three minutes. Between the measurements, the surface was regenerated with 0.5 M Na EDTA (pH 8.5) to remove Ni^2+ together with Gal-3. Each cycle started with NiCl2 followed by Gal-3 application.
The measured data were subtracted by reference values and analyzed using Integrated SPRAutolink (Reichert technologies, Depew, NY, USA) and Scrubber2 (version 2.0c, BioLogic Software, Campbell ACT, Australia).

human His6Gal-1C2S = target: T2, human His6Gal-1C2S (Homo sapiens, UniProt P09382, C3S); assay: ELISA-type binding of Gal-1 to immobilized glycans and neo-glycoproteins; conditions: 1 µM Gal-1, immobilized ligand 5 pmol per well
T2 construct: made in house; host or cells: Escherichia coli Rosetta (DE3) pLysS
T2 sequence (P09382 whole entry C3S): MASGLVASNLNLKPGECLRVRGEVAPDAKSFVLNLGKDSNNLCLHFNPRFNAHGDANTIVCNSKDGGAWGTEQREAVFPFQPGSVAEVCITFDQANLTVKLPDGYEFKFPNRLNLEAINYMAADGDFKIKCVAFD
Protocol: as §1

Compound: LacNAc-LacNAc-linker-NH2 [Compound 1a]
- Gal-3 binding to immobilized tetrasaccharide (in words) (human His6Gal-3 [1]): rather weak

- Gal-3 binding to immobilized tetrasaccharide (in words) (human His6Gal-3 [1]): high binding signals
- selectivity for Gal-3 binding compared with Gal-1 (in words) (human His6Gal-3 [1]): high selectivity
Compound: CC(=O)N[C@@H]1[C@@H](O)[C@H](O[C@@H]2O[C@H](CO)[C@H](O)[C@H](O[C@@H]3O[C@H](CO)[C@@H](O[C@@H]4O[C@H](CNNC(=O)CCCCCNC(=O)CCCC[C@@H]5SCC6NC(=O)NC65)[C@H](O)[C@H](O)[C@H]4O)[C@H](O)[C@H]3NC(C)=O)[C@H]2O)[C@@H](CO)O[C@H]1NC(=S)NCCN (some centres unmarked) [Compound 8]

- IC50 (human His6Gal-3 [2]): 14 µM
Compound: CC(=O)N[C@@H]1[C@@H](O)[C@H](O[C@@H]2O[C@H](CO)[C@H](O)[C@H](O[C@@H]3O[C@H](CO)[C@@H](O[C@@H]4O[C@H](CO)[C@H](O)[C@H](O)[C@H]4O)[C@H](O)[C@H]3NC(C)=O)[C@H]2O)[C@@H](CO)O[C@H]1NC(=S)NCCNC(=O)OC(C)(C)C [Compound 1, LacNAc-LacNAc-linker-NH2-tBoc]

Compound: ASF: Asialofetuin, standard glycoprotein having nine N-glycosidic bound LacNAc units [reference compound]
- Binding signal Galectin-3 (human His6Gal-3 [1]; 1 µM Gal-3, immobilized ligand 5 pmol per well): 0.38 ± 0.10
- Kd (human His6Gal-3 [1]; Gal-3 concentration at half-maximal binding to immobilized ligand (5 pmol), one site saturation fit, read-out: Apparent Kd): 1.26 ± 0.25 µM
- Relative Potency (human His6Gal-3 [1]; from apparent Kd, in relation to ASF): 1.00 ± 0.20
- Relative Potency per Glycan (human His6Gal-3 [1]; from apparent Kd, in relation to ASF, per glycan): 0.11 ± 0.02
- Kd (human His6Gal-3 [3]): 0.075 ± 0.002 µM
- Binding signal Galectin-1 (human His6Gal-1C2S): 0.40 ± 0.07

- Gal-3 binding to immobilized tetrasaccharide (in words) (human His6Gal-3 [1]): highest binding
- selectivity for Gal-3 binding compared with Gal-1 (in words) (human His6Gal-3 [1]): high selectivity
Compound: CC(=O)N[C@@H]1[C@@H](O)[C@H](O[C@@H]2O[C@H](CO)[C@H](O)[C@H](O[C@@H]3O[C@H](CO)[C@@H](O[C@@H]4O[C@H](CNNC(=O)CCCCCNC(=O)CCCC[C@@H]5SCC6NC(=O)NC65)[C@H](O)[C@H](O)[C@H]4NC(C)=O)[C@H](O)[C@H]3NC(C)=O)[C@H]2O)[C@@H](CO)O[C@H]1NC(=S)NCCN (some centres unmarked) [Compound 9]

- Relative Potency (human His6Gal-3 [2]): 1.0 ± 0.1
- IC50 (human His6Gal-3 [2]): 14 µM and 14.8 µM
- Relative Potency per Glycan (human His6Gal-3 [2]): 1.0 ± 0.1
Compound: CC(=O)N[C@@H]1[C@@H](O)[C@H](O[C@@H]2O[C@H](CO)[C@H](O)[C@H](O[C@@H]3O[C@H](CO)[C@@H](O[C@@H]4O[C@H](CNNC(=O)CCCCCNC(=O)CCCC[C@@H]5SCC6NC(=O)NC65)[C@H](O)[C@H](O)[C@H]4O)[C@H](O)[C@H]3NC(C)=O)[C@H]2O)[C@@H](CO)O[C@H]1NC(=S)NCCNC(=O)OC(C)(C)C (some centres unmarked) [Compound 6, 6-biotin LacNAc-LacNAc-linker-NH2-tBoc]

- Relative Potency (human His6Gal-3 [2]): 1.0 ± 0.2
- IC50 (human His6Gal-3 [2]): 7.66 ± 1.24 µM
- Relative Potency per Glycan (human His6Gal-3 [2]): 1.0 ± 0.2
Compound: CC(=O)N[C@@H]1[C@@H](O)[C@H](O[C@@H]2O[C@H](CO)[C@H](O)[C@H](O[C@@H]3O[C@H](CO)[C@@H](O[C@@H]4O[C@H](CNNC(=O)CCCCCNC(=O)CCCC[C@@H]5SCC6NC(=O)NC65)[C@H](O)[C@H](O)[C@H]4NC(C)=O)[C@H](O)[C@H]3NC(C)=O)[C@H]2O)[C@@H](CO)O[C@H]1NC(=S)NCCNC(=O)OC(C)(C)C (some centres unmarked) [Compound 7, 6-biotin LacdiNAc-LacNAc-linker-NH2-tBoc]

- IC50 (human His6Gal-3 [2]): ~8 µM
Compound: CC(=O)N[C@@H]1[C@@H](O)[C@H](O[C@@H]2O[C@H](CO)[C@H](O)[C@H](O[C@@H]3O[C@H](CO)[C@@H](O[C@@H]4O[C@H](CO)[C@H](O)[C@H](O)[C@H]4NC(C)=O)[C@H](O)[C@H]3NC(C)=O)[C@H]2O)[C@@H](CO)O[C@H]1NC(=S)NCCNC(=O)OC(C)(C)C [Compound 2, LacdiNAc-LacNAc-linker-NH2-tBoc]

Compound: LacdiNAc-LacNAc-linker-NH2 [Compound 2a]
- Gal-3 binding to immobilized tetrasaccharide (in words) (human His6Gal-3 [1]): essentially no binding
